# Measurements taken from patent US11485740B2, “Inhibitors of TRPC6” (Boehringer Ingelheim International GmbH, priority 2018, dated 2022).
# Target: T1, human TRPC6 (Homo sapiens, UniProt Q9Y210)
# T1 construct: expressed in transfected cells
# T1 sequence (Q9Y210 1-931): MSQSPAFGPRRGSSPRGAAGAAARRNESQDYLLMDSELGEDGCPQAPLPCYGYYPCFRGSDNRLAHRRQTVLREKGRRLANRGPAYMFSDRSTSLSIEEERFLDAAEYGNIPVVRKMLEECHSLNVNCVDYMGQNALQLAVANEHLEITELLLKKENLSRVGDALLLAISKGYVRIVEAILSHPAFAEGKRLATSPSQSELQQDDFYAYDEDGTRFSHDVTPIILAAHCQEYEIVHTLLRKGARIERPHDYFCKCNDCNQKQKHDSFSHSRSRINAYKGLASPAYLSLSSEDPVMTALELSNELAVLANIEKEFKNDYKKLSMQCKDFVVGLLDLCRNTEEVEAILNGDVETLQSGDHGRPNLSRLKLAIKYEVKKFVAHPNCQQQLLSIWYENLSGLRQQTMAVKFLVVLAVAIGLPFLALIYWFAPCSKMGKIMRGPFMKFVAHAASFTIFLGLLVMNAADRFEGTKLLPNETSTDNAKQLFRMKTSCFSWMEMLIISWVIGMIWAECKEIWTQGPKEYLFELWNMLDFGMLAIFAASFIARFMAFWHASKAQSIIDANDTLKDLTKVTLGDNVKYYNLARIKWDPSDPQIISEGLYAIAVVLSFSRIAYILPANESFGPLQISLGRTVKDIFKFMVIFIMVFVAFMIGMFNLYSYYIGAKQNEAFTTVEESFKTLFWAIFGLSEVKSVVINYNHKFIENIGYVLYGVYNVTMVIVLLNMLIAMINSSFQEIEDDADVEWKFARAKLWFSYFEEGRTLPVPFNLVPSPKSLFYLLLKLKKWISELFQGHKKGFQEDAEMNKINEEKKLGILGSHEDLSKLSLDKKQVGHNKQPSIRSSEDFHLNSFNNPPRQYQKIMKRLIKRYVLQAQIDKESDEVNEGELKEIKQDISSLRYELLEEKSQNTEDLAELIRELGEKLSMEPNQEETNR
# Assay: High throughput screening assay: Fluo4/AM calcium fluorescence in HEK293/TREx cells expressing human TRPC6, agonist GSK1702934A (single concentration 10 μM and IC50 curves)
# Format: cell-based
# Conditions: antagonist effect against human TRPC6, 7 concentrations 20 μM to 0.027 μM, triplicate
# In short: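 HEK293/TREx cells stably carrying tetracycline-induced (1 μg/ml) human TRPC6, loaded with Fluo4/AM (0.5 μM, 60 min, RT), pretreated 2 min with compound (10 μM final in screen), then stimulated with GSK1702934A in high-Ca2+ Ringer's (20 mM Ca2+ final). Fluorescence ratio over ~3 min normalized to no-compound and control-blocker wells; IC50 from triplicate curves.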
row,SMILES,IC50
1,"COc1cc(C(=O)N2CCC(c3ccc(N)nn3)CC2)ncc1-c1ccc(C2CC2)nc1 [Compound 43, [4-(6-Amino-pyridazin-3-yl)-piperidin-1-yl]-(6′-cyclopropyl-4-methoxy-[3,3′]bipyridinyl-6-yl)-methanone]",0.39 µM
2,COc1cc(C(=O)N2CCC(c3ccc(N)nn3)CC2)ncc1-c1ccc(OC(C)C)c(Cl)c1 [Compound 19],0.61 µM
3,"Nc1ccc(N2CCN(C(=O)c3ccc(-c4ccc(C(F)(F)F)cc4)cc3)CC2)cn1 [Compound 12, [4-(6-Amino-pyridin-3-yl)-piperazin-1-yl]-(4′-trifluoromethyl-biphenyl-4-yl)-methanone]",2.4 µM
4,"COc1cc(C(=O)N2CCC(c3ccc(N)nn3)CC2)ncc1-c1ccc(C)c(F)c1 [Compound 34, [4-(6-Amino-pyridazin-3-yl)-piperidin-1-yl]-[5-(3-fluoro-4-methyl-phenyl)-4-methoxy-pyridin-2-yl]-methanone]",0.1 µM
5,COc1cc(C(=O)N2CCC(c3ccc(N)nn3)CC2)ncc1-c1ccc(C(F)(F)F)nc1 [Compound 42],0.7 µM
6,COc1cc(C(=O)N2CCC(c3ccc(N)nn3)CC2)ncc1-c1ccc(OCC2CC2)c(Cl)c1 [Compound 18],2.7 µM
7,"COc1cc(C(=O)N2CCC(c3ccc(N)nn3)CC2)ncc1-c1ccc(C(F)(F)F)cc1Cl [Compound 24, [4-(6-Amino-pyridazin-3-yl)-piperidin-1-yl]-[5-(2-chloro-4-trifluoromethyl-phenyl)-4-methoxy-pyridin-2-yl]-methanone]",0.42 µM
8,"COc1cc(C(=O)N2CCC(c3ccc(N)nn3)CC2)ncc1-c1ccc(Cl)cc1 [Compound 40, [4-(6-Amino-pyridazin-3-yl)-piperidin-1-yl]-[5-(4-chloro-phenyl)-4-methoxy-pyridin-2-yl]-methanone]",0.073 µM

# The remaining lines, values ahead:
row,IC50,SMILES
1,0.16 µM,"COc1cc(C(=O)N2CCC(c3ccc(N)nn3)CC2)ccc1-c1ccc(OCC2CC2(C)C)nc1 (stereo not drawn) [Compound 77, [4-(6-Amino-pyridazin-3-yl)-piperidin-1-yl]-{4-[6-(2,2-dimethyl-cyclopropylmethoxy)-pyridin-3-yl]-3-methoxy-phenyl}-methanone]"
2,0.4 µM,"COc1cc(C(=O)N2CCN(c3cnc(N)cc3OC)C[C@H]2CC(F)F)ncc1-c1ccc(C(F)(F)F)cc1 (single isomer, unassigned) [Compound 110]"
3,4.7 µM,"Cc1cc(C(=O)N2CCC(c3ccc(N)nn3)CC2)ccc1-c1ccc(C(F)(F)F)cc1 [Compound 63, [4-(6-Amino-pyridazin-3-yl)-piperidin-1-yl]-(2-methyl-4′-trifluoromethyl-biphenyl-4-yl)-methanone]"
4,0.44 µM,"COc1cc(C(=O)N2CCC(c3ccc(N)nn3)CC2)ncc1-c1ccc(OCC2CC2(F)F)nc1 (stereo not drawn) [Compound 111, [4-(6-Amino-pyridazin-3-yl)-piperidin-1-yl]-[6′-(2,2-difluoro-cyclopropylmethoxy)-4-methoxy-[3,3′]bipyridinyl-6-yl]-methanone]"
5,0.52 µM,"COc1cc(-c2ccc(C(F)(F)F)cc2)ccc1C(=O)N1CCC(c2ccc(N)nn2)CC1 [Compound 66, [4-(6-Amino-pyridazin-3-yl)-piperidin-1-yl]-(3-methoxy-4′-trifluoromethyl-biphenyl-4-yl)-methanone]"
6,0.7 µM,"COc1cc(C(=O)N2CCN(c3cnc(N)cc3OC)CC2CC(F)F)ncc1-c1ccc(C(F)(F)F)cc1 (stereo not drawn) [Compound 108, [4-(6-Amino-4-methoxy-pyridin-3-yl)-2-(2,2-difluoro-ethyl)-piperazin-1-yl]-[4-methoxy-5-(4-trifluoromethyl-phenyl)-pyridin-2-yl]-methanone]"
7,0.43 µM,"COc1cc(C(=O)N2CCC(c3ccc(N)nn3)CC2)ccc1-c1ccc(C(F)(F)F)cc1 [Compound 55, [4-(6-Amino-pyridazin-3-yl)-piperidin-1-yl]-(2-methoxy-4′-trifluoromethyl-biphenyl-4-yl)-methanone]"
8,0.21 µM,"COc1cc(C(=O)N2CCN(c3ccc(N)nc3)CC2)ncc1-c1ccc(C(F)(F)F)nc1 [Compound 67, [4-(6-Amino-pyridin-3-yl)-piperazin-1-yl]-(4-methoxy-6′-trifluoromethyl-[3,3′]bipyridinyl-6-yl)-methanone]"
9,1.4 µM,"COc1cc(C(=O)N2CCC(c3ccc(N)nn3)CC2)ncc1-c1ccc(OC2CC2)nc1 [Compound 112, [4-(6-Amino-pyridazin-3-yl)-piperidin-1-yl]-(6′-cyclopropoxy-4-methoxy-[3,3′]bipyridinyl-6-yl)-methanone]"
10,0.84 µM,"COc1cc(C(=O)N2CCN(c3cnc(N)cc3OC)C[C@H]2CO)ncc1-c1ccc(F)cc1 [Compound 102, [(S)-4-(6-Amino-4-methoxy-pyridin-3-yl)-2-hydroxymethyl-piperazin-1-yl]-[5-(4-fluoro-phenyl)-4-methoxy-pyridin-2-yl]-methanone]"
